According to patent publication US10987382B2, “Solanum dubium seeds and honey (extracted from bee hives in Acacia tree populated area) combination for treatment of asthma and bronchial asthma” (priority 2015, dated 2021):

System: Carrageenan induced paw oedema in Wister Rats
Assay: Carrageenan induced paw oedema (anti-inflammatory activity)
Type: in vivo, rat
Details: for % reduction in edema volume: 40 mg/kg i.p.
Procedure: And anti-inflammatory study of aqueous crude extract of S. dubuim seeds, honey and S. dubuim seeds and honey (combination) on Wister Rats (42 rats), done to evaluate the anti inflammatory effects in animals using the method of Carrageenan induced paw oedema. (Nayak and Patel, 2010).
The first group serve as control and receive normal saline (1 ml/kg, orally), the second group served as standard and were administrated standard drug diclofenac sodium (100 mg/kg i.p.). The remaining groups were treated with, the third group received honey (2 ml/kg, orally), the fourth group are treated with the S. dubium seeds (2 ml/kg orally), the fifth group are treated with combination (2 ml/kg orally), the sixth group are treated with combination (4 ml/kg orally) and group seventh treated with standard drug hydrocortisone (40 mg/kg i.p.). A mark was made on both the hind paws just below the tibio-tarsal junction. After 30 min of the above treatment an inflammatory oedema was induced in the left hind paw by inject 0.1 ml solution of Carrageenan, in the planter tissue of all the animals. The paw volume was measured at first hour and followed every hour till the fifths hour after administration of carrageenan of each group. The difference between the initial and subsequence reading gave the actual edema volume. […] 100 mg/kg.
Finally the results of the anti-inflammatory activity of the fractions of methanolic extract (144) Wister Rats. […] Also the alcoholic extract of all fractions decreased rat paw edema at the end of 5th hour. The paw volume was measured initially at 0, 1, 2, 3, 4 and 5 h after Carrageenan injection using digital paw edema meter. Percent inhibition of inflammation was calculated using the formula: % Inhibition=100(1−vt/vc). Where (vc) represents edema volume in control and (vt) edema volume in group treated with sample.

## C[C@]12CCC(=O)C=C1CC[C@@H]1[C@@H]2[C@@H](O)C[C@@]2(C)[C@H]1CC[C@]2(O)C(=O)CO [hydrocortisone]
After 4 hour
  % reduction in edema volume: 70.39%
After 5 hour
  % reduction in edema volume: 76.35%

## O=C(O)Cc1ccccc1Nc1c(Cl)cccc1Cl [diclofenac sodium]
Rattus norvegicus, ip, 100 mg/kg i.p., after 4 hour, read-out: % inhibition of paw edema
  inhibition at 100 mg/kg: 74.3%
